Here are results for eight molecules from PMC12587552, “A nitrogen-containing diphyllin derivative C156-P1 exhibited broad-spectrum antiviral activity against Flaviviridae viruses by preventing endosomal acidification” (Antimicrobial Agents and Chemotherapy, 2025).

Read-outs that look alike come from different tables or passages of the source.

By EC50 is commonly meant the concentration giving half of the maximal effect.

Data set [1] relates to endosomal acidification in A549 cells. Put plainly: Endosomal acidification, LysoSensor DND-189 flow cytometry. Format: cell-based, human. The conditions noted are these: A549 cells pretreated 12 h; C156-P1 100 nM or 1 µM, Baf-A1 100 nM. A general note: In flow cytometry, cells or beads pass a laser one at a time.
The next data set has as its target V-ATPase (Homo sapiens, UniProt Q9Y487). Put plainly: ATPase activity assay on lysate of treated cells. Format: cell-based. The conditions noted are these: A549 cells treated 24 h; C156-P1 100 nM or 1000 nM, PHY34 100 nM, Baf-A1 100 nM; 2 µg total cell protein.
The subject of a further data set is ATP6V0A2. As to the kind of experiment: ATP6V0A2 mRNA level by RT-qPCR. Format: cell-based, human. The conditions noted are these: A549 cells, 100 nM, 48 h. For orientation: Real-time PCR tracks product formation cycle by cycle.
For data set [2], the system named is DENV-2.
Data set [3] deals with ZIKV. Also noted: method as in PMID 29033372, PMID 28694387. Particulars: cited from earlier work.
Data set [4] concerns ZIKV. The conditions noted are these: cited from earlier work.
Data set [5] concerns DENV-2. The arrangement: method as in PMID 30125275. Particulars: read-out: EC50 against DENV-2 infection; cited from earlier work.
The next data set in a line: in vitro. Particulars: human.
Data set [6] concerns DENV-2. Put plainly: microbe, parasite or virus in culture. The conditions noted are these: Dengue virus, DENV2, A549, 48 h, read-out: EC50 against DENV-2.
Data set [7] has as its system other Flaviviridae viruses. The conditions noted are these: cited from earlier work.

Chain of V-ATPase (Q9Y487 whole entry, looked up): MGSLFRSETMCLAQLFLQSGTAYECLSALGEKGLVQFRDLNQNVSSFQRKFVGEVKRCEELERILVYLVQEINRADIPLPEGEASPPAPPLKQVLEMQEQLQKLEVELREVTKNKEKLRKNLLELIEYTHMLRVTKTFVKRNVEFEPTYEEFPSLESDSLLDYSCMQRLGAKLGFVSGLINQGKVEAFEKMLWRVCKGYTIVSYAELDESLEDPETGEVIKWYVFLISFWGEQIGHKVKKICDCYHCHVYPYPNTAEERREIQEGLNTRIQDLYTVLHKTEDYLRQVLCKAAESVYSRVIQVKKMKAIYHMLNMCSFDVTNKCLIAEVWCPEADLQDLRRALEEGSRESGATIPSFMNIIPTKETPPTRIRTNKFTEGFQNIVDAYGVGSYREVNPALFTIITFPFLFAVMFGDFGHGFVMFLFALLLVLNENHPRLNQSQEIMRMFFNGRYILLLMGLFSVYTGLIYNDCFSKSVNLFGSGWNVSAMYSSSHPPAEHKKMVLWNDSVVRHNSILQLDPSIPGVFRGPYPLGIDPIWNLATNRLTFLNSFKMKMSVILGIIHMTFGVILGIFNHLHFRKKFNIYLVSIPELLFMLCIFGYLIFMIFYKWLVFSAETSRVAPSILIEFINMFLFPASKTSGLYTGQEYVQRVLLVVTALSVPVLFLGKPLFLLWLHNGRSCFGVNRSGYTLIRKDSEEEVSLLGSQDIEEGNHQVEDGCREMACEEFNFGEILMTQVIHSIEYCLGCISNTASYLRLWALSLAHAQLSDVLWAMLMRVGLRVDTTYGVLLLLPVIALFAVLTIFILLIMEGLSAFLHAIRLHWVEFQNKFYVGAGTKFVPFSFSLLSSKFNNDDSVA

For `COc1cc2c(O[C@@H]3O[C@H](CO)[C@@H]4OC(C)(C)O[C@@H]4[C@H]3O)c3c(c(-c4ccc5c(c4)OCO5)c2cc1OC)C(=O)OC3` [PHY34, reference compound], the “Endosomal acidification (FITC intensity of LysoSensor DND-189)” value in data set [1] is recorded as “inhibited endosomal acidification”. The V-ATPase activity entry on V-ATPase was “significantly reduced V-ATPase activity”. For the same molecule, the “ATP6V0A2 mRNA expression” value in the data set with ATP6V0A2 is given as “decrease in ATP6V0A2 mRNA expression”. Also, the “DENV-2 infection (NS3 protein, Western blot)” value in the data set on DENV-2 [2] (A549 cells, MOI = 2, 48 h, indicated concentrations) is “inhibited endosomal acidification and DENV-2 infection in a dose-dependent manner”.

Turning to `CCN(CC)CCCC(C)Nc1ccnc2cc(Cl)ccc12` (centres unmarked) [chloroquine], the “Inhibitory concentration (dose) required in mice against ZIKV” value with ZIKV [3] is 100 mg/kg. Moreover, the “Inhibitory concentrations necessary for ZIKV infection in cell culture” value in the data set on ZIKV [4] is listed as “micromolar range”.

With `O=C(Nc1ccc([N+](=O)[O-])cc1Cl)c1cc(Cl)ccc1O` [niclosamide], in the data set with DENV-2 [5], the EC50 was roughly 10000 nM.

In the case of `COc1cc2c(O)c3c(c(-c4ccc5c(c4)OCO5)c2cc1OC)C(=O)OC3` [DP, diphyllin], the “SI (ratio of CC50 to EC50)” value with DENV-2 [2] (A549 cells, DENV-2) came to 39.98. The molecule further returned a CC50 in “in vitro” of 16000 nM. Also, the concentration for a half-maximal effect (EC50) in the data set on DENV-2 [6] was determined as 401 nM.

For `CO/C1=C\C(C)=C\[C@@H](C)[C@@H](O)[C@@H](C)C/C(C)=C/C=C/[C@H](OC)[C@@H]([C@@H](C)[C@@H](O)[C@H](C)[C@@]2(O)C[C@@H](O)[C@H](C)[C@@H](C(C)C)O2)OC1=O` [Baf-A1, bafilomycin A1], the “Endosomal acidification (FITC intensity of LysoSensor DND-189)” value in [1] is “shifted the peak of FITC leftward”. Besides, the V-ATPase activity result at V-ATPase is “significantly reduced V-ATPase activity”.

Turning to `COc1cc(N[C@H](C(=O)c2c[nH]c3ccc(OC(F)(F)F)cc23)c2ccc(Cl)cc2OC)cc(S(C)(=O)=O)c1` [JNJ-1802], the “Inhibitory effects against other Flaviviridae viruses” value in data set [7] is recorded as “lacks inhibitory effects”.

In the case of `CCN(CCO)CCCC(C)Nc1ccnc2cc(Cl)ccc12` (centres unmarked) [hydroxychloroquine], the “Inhibitory concentration (dose) required in mice against ZIKV” value with ZIKV [3] was 40 mg/kg.

For the molecule `COc1cc2c(O[C@@H]3O[C@H](C)[C@@H](O)[C@H](O)[C@H]3O)c3c(c(-c4ccc5c(c4)OCO5)c2cc1OC)C(=O)OC3` [PTA, patentiflorin A, reference compound], the “SI (ratio of CC50 to EC50)” value in the data set on DENV-2 [2] was 5.12. This molecule also showed a CC50 in the data set “in vitro” of 195 nM. For the same molecule, the EC50 in the data set on DENV-2 [6] is 38.1 nM.
